Values of other authors in article PMC9916978, “Enantioselective Human Serum Albumin Binding of Apremilast: Liquid Chromatographic, Fluorescence and Molecular Docking Study” (International Journal of Molecular Sciences, 2023).

What was measured:
Design in all cases: method as in earlier work
Details in all cases: 0.25 to 2.5 μg/mL; cited from earlier work
mouse plasma = system: mouse plasma
rat plasma = system: rat plasma
rabbit plasma = system: rabbit plasma
monkey plasma = system: monkey plasma
human plasma = system: human plasma

CCOc1cc([C@@H](CS(C)(=O)=O)N2C(=O)c3cccc(NC(C)=O)c3C2=O)ccc1OC [APR, apremilast]
overall mean percent bound (mouse plasma): 88.6% | overall mean percent bound (rat plasma): 90.6% | overall mean percent bound (rabbit plasma): 80.9% | overall mean percent bound (monkey plasma): 84.3% | overall mean percent bound (human plasma): 68.3%
